Data: US20230219898A1, “COMPOUNDS AND METHODS FOR BLOCKING APOPTOSIS AND INDUCING AUTOPHAGY” (President and Fellows of Harvard College, priority 2020, published 2023)

Experiments:
RIPK1 in complex I = experiment: RIPK1 activation in complex I of TNFα-stimulated MEFs; assay type: cell-based, mouse; conditions: 10 μM
Description: Cells were seeded in 15 cm dishes and treated as indicated with Flag-TNFα ([…]). To terminate treatment, media was removed and plates were washed with 50 mL of ice cold PBS. Plates were frozen at −80C until all time points were acquired. Plates were thawed on ice and cells were lysed in 0.5% NP-40 lysis buffer (50 mM Tris-HCl pH 7.5, 150 mM NaCl and 0.5% NP-40) supplemented with protease inhibitors and N-Ethylmaleimide (2.5 mg/ml). Cell lysates were rotated at 4° C. for 30 min then clarified at 4° C. at 14,000 rpm for 30 min. Proteins were immunoprecipitated from cleared protein lysates with 20 μl of anti-Flag M2 beads (Sigma) with rotation overnight at 4° C. 4×washes in 0.5% NP-40 buffer with N-Ethylmaleimide were performed, and samples eluted by boiling in 50 μl 1×SDS loading buffer. For complex-II purification cells were seeded in 10 cm dishes and treated as indicated using media containing TNFα (10 ng/ml) and zVAD (20 μM). Cells were lysed on ice in 0.5% NP-40 lysis buffer. Cell lysates were rotated at 4C for 30 min then clarified at 4C at 14,000 rpm for 10 min. 20 μl of protein G Sepharose (Sigma), after pre-blocking for 1 h with lysis buffer containing 1% BSA, were incubated with FADD antibody ([…]) and the mixture was incubated in rotation with cleared protein lysates 4 h at 4C. […]

TRADD-N and TRAF2-C = target: T1, TRADD-N and TRAF2-C (Homo sapiens, UniProt Q15628); experiment: NanoBiT protein-protein interaction assay TRADD-N / TRAF2-C; assay type: cell-based
T1 construct: expression constructs encoding Flag-TRADD-N(1-179) and HA-TRADD-C(180-312); expressed in transfected cells; host or cells: HEK293T
Description: Mean ±s.d. from quadruplicates (n=4).
The Nano-Glo Live Cell assay kit (Promega) was used as follows: HEK293T cells were seeded at 7.5×10^3 cells per well in a white, clear-bottom 96-well plate 12 h before transfection (10 ng LgBiT-fused construct and 10 ng SmBiT-fused construct). After 24 h incubation, medium was removed and replaced with 100 μl Opti-MEM medium for 1 h at 37C. The Nano-Glo reagent was prepared as per manufacturer's instructions and added to each well immediately before the luminescence reading was taken. Luminescence was measured at 1 min intervals for 10 min on a plate reader and reported as relative light units (RLU). For quantitative comparison of LgBiT-SmBiT interactions, the peak values at the 2-3 min time point were used. Concentration of compounds used in NanoBiT assay: 10 μM (Apt-1, ICCB-19 or ICCB-19i).

[1] = system: TRADD-N mutants (Y16A, F18A, I72A, R119A, G121A); experiment: Thermal shift assay with His-TRADD-N mutants; assay type: binding, human
Description: To determine stability, purified proteins were made to a final concentration of […]. SYPRO Orange dye was added to the protein to make a final concentration of 2×. Compounds were added in the mix with a final concentration of 250 μM or as indicated and incubated at 4C for 1 h. The experiments were performed in 384-well plates specific for real-time PCR instrument with a total volume of 20 μl/well. The assay plate was covered with a sheet of optically clear adhesive to seal each well. The assay plate was centrifuged at 800×g for 2 min at 25C to collect solutions in the bottom of the well and remove bubbles. The assay plate was placed into the Applied Biosystems QuantStudio 6 Real-Time PCR System. The reaction was run from 25C, ramping up in increments of 0.05° C./s to a final temperature of 95C with fluorescence detection throughout the experiment to generate a dataset. Melting temperature of the protein (Tm) was determined by performing non-linear fitting of the dataset to a Boltzmann Sigmoidal curve in GraphPad Prism with the following equation: Y=Bottom+(Top-Bottom)/[1+exp(Tm-X/Slope)], where Y=fluorescence emission in arbitrary units; X=temperature; Bottom=baseline fluorescence at low temperature; Top=maximal fluorescence at top of the dataset; Slope=describes the steepness of the curve, with larger values denoting shallower curves.

[2] = system: brain slices from PS19 mice; experiment: Cultured organotypic brain slices from PS19 mice; assay type: cell-based; conditions: treatment for 3 h
Description: FIG. 14g contains epresentative images and quantification of cultured brain slices from PS19 mice (4 months old) stained with phospho-tau (red) and cell nuclei (DAPI/blue). Mean ±s.e.m. from biological replicates (n=5). Two-tailed t-test.
PS19 mice (4 months old) were anesthetized with isoflurane prior to decapitation. The brain was removed and immediately immersed in ice-cold cutting solution (2.5 mM KCl, 5 mM MgCl2, 11 mM D-Glucose, 238 mM Sucrose, 26 mM NaHCO3, 1 mM NaH2PO4, 1 mM CaCl2)). The cerebellum was trimmed off and the caudal end of the brain was glued onto the cutting table of the vibratome (LEICA VT1000 S, Germany). The brain was cut in coronal slices of […] with an amplitude of 1.5 mm, a frequency of 75 Hz and a velocity of 0.1 mm/s. The slices were collected and stored in ice-cold cutting solution before floating onto semi-porous membrane inserts (Millipore, Millicell-CMLow Height Culture Plate Inserts, Schwalbach, Germany). Slices were cultured at 37° C. and 5% CO2 in a culture medium consisting of 394 ml MEM, 10% normal horse serum, 5 mg/mL penicillin, 5 mg/mL streptomycin, 2.5 ml L-glutamine, 1 mM MgSO4, 11 mM D-Glucose, 238 mM Sucrose, 5 mM NaHCO3, 1 mM CaCl2), 26.6 mM HEPES, 0.024 ml 25% ascorbic acid and 0.5 mg Insulin. Medium was changed every other day. Slices are maintained for 14 days in vitro prior to treatment.

His-TRADD-N = target: T2, His-TRADD-N (Homo sapiens, UniProt Q15628); experiment: Thermal shift assay with His-TRADD-N; assay type: binding
T2 construct: expression constructs encoding Flag-TRADD-N(1-179) and HA-TRADD-C(180-312); made in house; host or cells: E. coli BL21 (DE3), pET-28a
Description: Recombinant WT and mutant His-TRADD-N(aal-179) protein fragment was expressed in BL21 (DE3) E. coli after induction with 0.5 mM IPTG overnight at 16C. ^15N-labeled TRADD-N domain protein was purified from E. co/i grown at 16C in minimal medium. Bacteria were harvested and disrupted by a high-pressure homogenizer and purified by Ni^2+ affinity resin (GE Healthcare). All proteins were further purified by size exclusion chromatograph on a Superdex 75 column (GE Healthcare) in a buffer containing 20 mM imidazole (pH6.6), 200 mM NaCl, 20 mM DTT and 0.05% NaN3. All NMR samples were in the same buffer at concentrations between 0.2-0.4 mM with 90% H2O/10% D2O. […]
To determine stability, purified proteins were made to a final concentration of 1 μg/l. […] The reaction was run from 25C, ramping up in increments of 0.05° C./s to a final temperature of 95C with fluorescence detection throughout the experiment to generate a dataset. Melting temperature of the protein (Tm) was determined by performing non-linear fitting of the dataset to a Boltzmann Sigmoidal curve in GraphPad Prism with the following equation: Y=Bottom+(Top-Bottom)/[1+exp(Tm-X/Slope)], where Y=fluorescence emission in arbitrary units; X=temperature; Bottom=baseline fluorescence at low temperature; Top=maximal fluorescence at top of the dataset; Slope=describes the steepness of the curve, with larger values denoting shallower curves.

T1 sequence (Q15628 1-179): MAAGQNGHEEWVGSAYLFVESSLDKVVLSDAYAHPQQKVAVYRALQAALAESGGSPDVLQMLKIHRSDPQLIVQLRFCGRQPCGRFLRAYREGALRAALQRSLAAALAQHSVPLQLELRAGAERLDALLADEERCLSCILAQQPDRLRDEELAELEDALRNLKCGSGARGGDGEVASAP
T2 sequence (Q15628 1-179): as above

Row | Structure (SMILES) | activation of RIPK1 in complex I induced by TNFα (RIPK1 in complex I) | direct binding of TRADD-N and TRAF2 (NanoBiT) (TRADD-N and TRAF2-C) | binding with recombinant TRADD-N mutants [1] | autophagy and accumulation of mutant tau in brain slices [2] | increase of Tm of His-TRADD-N (His-TRADD-N)
1 | O=C(CSC1=NCCN1)NC1CCCCCC1 [ICCB-19] | reduced the rapid activation of RIPK1 |  |  |  | 
2 | CN1CCN=C1SC(C(=O)NC1CCCCCC1)c1ccccc1 (centres unmarked) [Compound 30] |  | dose-dependently reduced | reduced relative to WT | induced autophagy and reduced the accumulation of mutant tau | 3.7 °C
